Source: patent US20110033516A1, “METHODS AND COMPOSITIONS FOR BONE HEALING BY PERIOSTIN” (Medical University of South Carolina, priority 2009, published 2011)
Entries after “also recorded” stand apart in the source; their conditions may differ.

B1: periostin: Full length recombinant mouse periostin (a.k.a. OSF-2) purchased from R&D systems; secreted 90 kDa matricellular protein (protein, UniProt Q62009 1-838, looked up)
chain: MVPLLPLYALLLLFLCDINPANANSYYDKVLAHSRIRGRDQGPNVCALQQILGTKKKYFSSCKNWYQGAICGKKTTVLYECCPGYMRMEGMKGCPAVMPIDHVYGTLGIVGATTTQHYSDVSKLREEIEGKGSYTYFAPSNEAWENLDSDIRRGLENNVNVELLNALHSHMVNKRMLTKDLKHGMVIPSMYNNLGLFINHYPNGVVTVNCARVIHGNQIATNGVVHVIDRVLTQIGTSIQDFLEAEDDLSSFRAAAITSDLLESLGRDGHFTLFAPTNEAFEKLPRGVLERIMGDKVASEALMKYHILNTLQCSEAITGGAVFETMEGNTIEIGCEGDSISINGIKMVNKKDIVTKNGVIHLIDEVLIPDSAKQVIELAGKQQTTFTDLVAQLGLASSLKPDGEYTLLAPVNNAFSDDTLSMDQRLLKLILQNHILKVKVGLSDLYNGQILETIGGKQLRVFVYRTAICIENSCMVRGSKQGRNGAIHIFREIIQPAEKSLHDKLRQDKRFSIFLSLLEAADLKDLLTQPGDWTLFAPTNDAFKGMTSEERELLIGDKNALQNIILYHLTPGVYIGKGFEPGVTNILKTTQGSKIYLKGVNETLLVNELKSKESDIMTTNGVIHVVDKLLYPADIPVGNDQLLELLNKLIKYIQIKFVRGSTFKEIPMTVYTTKIITKVVEPKIKVIQGSLQPIIKTEGPAMTKIQIEGDPDFRLIKEGETVTEVIHGEPVIKKYTKIIDGVPVEITEKQTREERIITGPEIKYTRISTGGGETGETLQKFLQKEVSKVTKFIEGGDGHLFEDEEIKRLLQGDTPAKKIPANKRVQGPRRRSREGRSQ
modifications: full-length
notes: Full length recombinant mouse periostin (a.k.a. OSF-2) purchased from R&D systems; secreted 90 kDa matricellular protein
B2: TGFβ3: exogenous factor (transforming growth factor) tested in the 3D collagen gel migration assay (protein, UniProt P10600 301-412, looked up)
Transforming growth factor …: ALDTNYCFRNLEENCCVRPLYIDFRQDLGWKWVHEPKGYYANFCSGPCPYLRSADTTHSTVLGLYNTLNPEASASPCCVPQDLEPLTILYYVGRTPKVEQLSNMVVKSCKCS

How the values were obtained:
[1] = test system: ROS cell line; assay: Cell adhesion assay, ROS cell line; format: cell-based, rat; details: assayed in triplicate, 1% BSA negative control
Protocol: FIGS. 16A-B Cell adhesion assays. (A) Each of the 55 peptides (20 mers) of periostin was assayed in triplicate by a cell adhesion assay using the ROS cell line. Collagen I and poly-L-lysine were used as positive controls, whereas 1% BSA coated wells were negative controls for non-specific binding. […] These subtle differences may be attributed to different integrin profiles of the two cell types.
The 55 peptides in Table 1 have been studied in a cell adhesion assay using the ROS cell line.
These assays will be performed as described. Briefly, titrated amounts of purified matrix protein (or peptides or fragments) ranging from 10 ng/ml to 100 μg/ml will be used to coat the wells of a 96-well dish. Poly-L-lysine (1.5 μg/ml) and 1% BSA will be used as positive and negative controls for adhesion, respectively. The wells are blocked with 1% BSA to coat any of the charged plastic surface not coated by the substrates. Finally the cells are allowed to adhere to the substrates at 37° C. for 1-2 hours depending on cell type. The cells are then gently washed to remove those that are not adherent and retain those that are adherent. Then the cells remaining are exposed to 4% PFA to fix them and they are subsequently stained with 0.25% crystal violet for 30 min. Plates are washed and air-dried. At this point the cells can be visualized and images digitally captured. The amount of stain on the cells is solubilized by 2% sodium deoxycholate for 10 min. and absorbance is measured at 540 nm wavelength. This gives quantitative data directly related to the number of adherent cells. Another assessment can be done by digitally capturing the cells in each well and analyzing their spreading by morphometric analysis.

[2] = test system: primary fibroblasts; assay: 3D collagen gel migration assay with hanging drop aggregates; format: cell-based; details: aggregates of 50,000 cells/20 μl on collagen I hydrogels (1.5 mg/ml), exogenous factors
Source text: FIG. 11 Periostin promotes migration of primary fibroblasts in 3D collagen gel assays. […] Pictures above the graph lines show representative images of the stimulated cultures with the cell migratory boundaries outlined.
The 3-D migration and invasion assay will use the same cells but aggregate them using a hanging drop method overnight. […] The number of cells that have migrated out from the aggregate and the distance migrated on the top of the gel are the first order parameters of migration.

[3] = test system: Mesenchyme from periostin null mice; assay: Hanging drop culture of periostin null mesenchyme, collagen expression by immunoblotting; format: cell-based, mouse; details: purified periostin protein 10 μg/ml in culture medium, 7 days
Protocol: FIGS. 3A-B Periostin regulates collagen synthesis. Mesenchyme from periostin null mice was placed in hanging drop cultures and incubated with either purified periostin protein (10 μg/ml) or PBS. Mesenchyme from wild-type mice was used as control tissue. After 7 days, tissues were harvested and analyzed for periostin and collagen expression by immunoblotting. […] Actin is used for protein normalization. (B) Graphical representation of Western analyses presented in panel A obtained from densitometric analyses using NIH image software. Values obtained were compared against wild-type values (baseline) and represented as relative percent change. * denotes p<0.05.
Studies were carried out to examine the affect of periostin on fibroblast differentiation. Through these studies, it was ascertained that periostin was a crucial regulator of collagen I synthesis and maturation (fibrillogenesis) and promoted fibroblast differentiation (FIGS. 3A-B). […] Within the bone, expression of these matrix components was seen primarily in the periosteal cells. To ascertain the functional significance of periostin on bone growth, gene targeted mice were generated. These mice are viable and able to reproduce. However, significant defects have been observed in the material properties of various connective tissues. […]

[4] = test system: fibroblasts; assay: Collagen deposition by fibroblasts after periostin exposure; format: cell-based; details: following periostin exposure/incubation
[5] = test system: rat osteoblast cells; assay: Standard wounding / scratch migration assay; format: cell-based; details: dishes coated with plastic, collagen, or collagen plus titrating amounts of periostin; BMP-2 titrated; up to 48 hours
Protocol: Tissue culture dishes were coated with either collagen, or collagen with titrating amounts of periostin. Cells were plated and allowed to adhere for 24 hours. A standard “wounding” or “scratch assay” was performed and measurements of cell migration into the scratch area were obtained.
The ability of periostin to promote migration of osteoblast cells in culture was ascertained utilizing a standard “wounding” assay. For this, a monolayer of rat osteoblast cells was plated on either plastic, collagen or collagen plus titrating amounts of periostin. A small scratch was made (with a P200 tip) through the middle of the monolayer and the cells were allowed to migrate into the “wounded” area for up to 48 hours.

[6] = test system: fibula osteotomy in the periostin null mouse; assay: Fibula osteotomy model of bone fracture healing, X-ray analysis; format: in vivo; details: three weeks after fibula osteotomy, hydrogel delivery at the break point
Protocol: FIGS. 8A-C Periostin KO mice have defects in bone regeneration. X-ray analyses of bone healing three weeks after fibula osteotomies. […] (B,C) Fibula osteotomies were performed in the periostin null background and analyzed by X-ray three weeks later. In the absence of periostin there is no apparent callus formed and no fibula fusion (C).
To examine the role of periostin as a mediator of bone healing following injury, a novel in vivo murine fibula osteotomy model was developed (FIGS. 6A-B). The generation of this model system in the mouse has significant advantages over the more standard tibia and femur bone break models. Currently, the main disadvantage of the tibia and femur models is their necessity for an intermedullary stabilizer (i.e., metal rods) due to these bones being weight bearing. These rods make various analyses such microCT, MTS and histological examination either exceedingly difficult or totally impossible. Because the fibula is a non-weight bearing bone, intermedullary stabilization is not required. As such, analyses such as microCT, MTS and histology are more easily and reproducibly performed in the fibula osteotomy model. […]

Molecule	cell adhesion (binding) to peptide [1]	also measured
DQRLLKLILQNHILKVKVGL (listed as Mus musculus) [Peptide 28, murine periostin peptide]	significant binding	–
HGMVIPSMYNNLGLFINHYP (listed as Mus musculus) [Peptide 12, murine periostin peptide]	significant binding	–
HSHMVNKRMLTKDLKHGMVI (listed as Mus musculus) [Peptide 11, murine periostin peptide]	significant binding	–
HSRIRGRDQGPNVCALQQIL (listed as Mus musculus) [Peptide 2, murine periostin peptide]	significant binding	–
IGCEGDSISINGIKMVNKKD (listed as Mus musculus) [Peptide 22, murine periostin peptide]	significant binding	–
RGLENNVNVELLNALHSHMV (listed as Mus musculus) [Peptide 10, murine periostin peptide]	significant binding	–
TIGGKQLRVFVYRTAICIEN (listed as Mus musculus) [Peptide 30, murine periostin peptide]	significant binding	–
B1	–	fold-change in area of migration [2]: highest degree of migration; expression of collagen Ia1 and Ia2 [3]: induces expression of collagen Ia1 and Ia2; collagen deposition by fibroblasts [4]: increased in a dose-dependent manner; cell migration into the scratch area [5]: highest degree of migration; also recorded: most potent stimulation of migration; bone healing (callus formation, fibula fusion) by X-ray [6]: “rescued” the null phenotype; also recorded: pronounced healing is evident
B2	–	fold-change in area of migration [2]: promoted migration
